Measured values reported in patent publication US20240269139A1, “COMPOUNDS FOR TARGETED PROTEIN DEGRADATION OF KINASES” (DANA-FARBER CANCER INSTITUTE, INC., priority 2020, published 2024).
Read-outs that look alike come from different tables or passages of the source.

Key:
[1] = target: protein kinases (human kinome) (Homo sapiens, UniProt O43683); assay type: cell-based; conditions: for logFC: BUB1 (O43683); for logFC BUB1 (O43683): direction down
[2] = target: protein kinases (human kinome) (Homo sapiens, UniProt P11802); assay type: cell-based; conditions: experiment wp152
[3] = target: protein kinases (human kinome) (Homo sapiens, UniProt P35790); assay type: cell-based; conditions: CHKA P35790; experiment wp152
[4] = target: T1, protein kinases (human kinome) (Homo sapiens, UniProt P42680); assay type: cell-based; conditions: TEC (P42680), experiment wp134
T1 sequence (P42680 1-631): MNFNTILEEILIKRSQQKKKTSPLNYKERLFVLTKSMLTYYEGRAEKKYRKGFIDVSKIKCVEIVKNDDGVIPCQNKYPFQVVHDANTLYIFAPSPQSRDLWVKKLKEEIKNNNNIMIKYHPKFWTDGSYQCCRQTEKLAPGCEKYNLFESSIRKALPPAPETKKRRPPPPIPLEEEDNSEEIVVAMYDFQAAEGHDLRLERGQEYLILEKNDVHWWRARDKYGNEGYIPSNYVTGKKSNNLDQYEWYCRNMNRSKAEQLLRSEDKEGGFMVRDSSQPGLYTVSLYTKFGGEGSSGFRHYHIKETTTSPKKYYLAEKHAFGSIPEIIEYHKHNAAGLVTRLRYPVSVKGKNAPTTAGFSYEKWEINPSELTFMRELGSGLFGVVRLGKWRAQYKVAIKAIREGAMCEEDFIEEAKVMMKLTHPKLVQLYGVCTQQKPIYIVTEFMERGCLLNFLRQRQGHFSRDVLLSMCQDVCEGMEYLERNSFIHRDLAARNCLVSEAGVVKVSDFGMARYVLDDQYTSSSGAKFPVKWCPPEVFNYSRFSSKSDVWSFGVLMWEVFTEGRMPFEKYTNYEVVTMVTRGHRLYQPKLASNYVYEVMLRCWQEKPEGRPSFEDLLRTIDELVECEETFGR

[5] = target: protein kinases (human kinome) (Homo sapiens, UniProt P51451); assay type: cell-based; conditions: for logFC BLK: BLK (P51451), direction down; for logFC of BLK (P51451): down
[6] = target: protein kinases (human kinome) (Homo sapiens, UniProt P53671); assay type: cell-based; conditions: experiment wp152
[7] = target: protein kinases (human kinome) (Homo sapiens, UniProt Q07912); assay type: cell-based
[8] = target: T2, protein kinases (human kinome) (Homo sapiens, UniProt Q8TAS1); assay type: cell-based; conditions: experiment wp134
T2 sequence (Q8TAS1 1-419): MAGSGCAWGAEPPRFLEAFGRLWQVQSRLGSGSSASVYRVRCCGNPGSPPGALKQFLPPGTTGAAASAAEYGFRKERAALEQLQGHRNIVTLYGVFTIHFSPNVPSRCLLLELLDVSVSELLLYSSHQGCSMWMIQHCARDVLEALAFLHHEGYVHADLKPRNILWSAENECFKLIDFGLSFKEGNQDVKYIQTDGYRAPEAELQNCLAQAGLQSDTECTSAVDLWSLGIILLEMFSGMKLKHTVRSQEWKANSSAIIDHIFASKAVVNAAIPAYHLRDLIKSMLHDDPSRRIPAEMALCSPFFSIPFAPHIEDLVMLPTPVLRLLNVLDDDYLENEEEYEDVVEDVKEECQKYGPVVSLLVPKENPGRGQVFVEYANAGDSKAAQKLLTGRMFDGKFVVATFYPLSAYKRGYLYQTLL

[9] = target: protein kinases (human kinome) (Homo sapiens, UniProt Q9H0K1); assay type: cell-based; conditions: experiment wp134
[10] = target: T3, protein kinases (human kinome) (Homo sapiens, UniProt Q9UEE5); assay type: cell-based; conditions: STK17A Q9UEE5; experiment wp134
T3 sequence (Q9UEE5 1-414): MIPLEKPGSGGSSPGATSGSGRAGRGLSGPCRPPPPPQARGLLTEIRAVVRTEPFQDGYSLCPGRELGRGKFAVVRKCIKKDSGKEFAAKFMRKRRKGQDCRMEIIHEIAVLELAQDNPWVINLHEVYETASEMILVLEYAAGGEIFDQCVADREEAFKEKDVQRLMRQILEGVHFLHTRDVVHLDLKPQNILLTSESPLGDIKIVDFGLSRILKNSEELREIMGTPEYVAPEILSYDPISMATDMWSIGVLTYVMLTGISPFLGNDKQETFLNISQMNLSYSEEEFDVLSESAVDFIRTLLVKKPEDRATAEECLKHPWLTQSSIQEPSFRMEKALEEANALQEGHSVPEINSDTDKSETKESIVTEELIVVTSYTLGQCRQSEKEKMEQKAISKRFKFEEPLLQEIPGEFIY

[11] = test system: protein kinases (human kinome); assay type: cell-based
[12] = target: extended human kinome (kinase-like proteins) (Homo sapiens, UniProt Q16875); experiment: Whole cell quantitative proteomics: extended kinome hits; conditions: Accession Q16875; experiment wp134
Protocol: (§1) Whole cell multiplexed quantitative proteomics was employed to measure changes in abundance of the proteome in response to treatment with each of the kinase degrader molecules relative to DMSO (Table 1, Appendix I).
(§2) Cells were treated with DMSO (biological triplicate) or degrader at indicated dose and time and cells were harvested by centrifugation. […] Precipitated protein was resuspended in 4 M Urea, 50 mM HEPES pH 7.4, followed by dilution to 1 M urea with the addition of 200 mM EPPS, pH 8. Proteins were first digested with LysC (1:50: enzyme:protein) for 12 hours at room temperature. The LysC digestion was diluted to 0.5 M Urea with 200 mM EPPS pH 8 followed by digestion with trypsin (1:50; enzyme:protein) for 6 hours at 37° C. Tandem mass tag (TMT) reagents (Thermo Fisher Scientific) were dissolved in anhydrous acetonitrile (ACN) according to manufacturer's instructions. […] The 10, 11, or 16-plex labeling reactions were performed for 1.5 hours at room temperature and the reaction quenched by the addition of hydroxylamine to a final concentration of 0.3% for 15 minutes at room temperature. The sample channels were combined at a 1:1 ratio, desalted using C18 solid phase extraction cartridges (Waters®) and analyzed by LC-MS for channel ratio comparison. Samples were then combined using the adjusted volumes determined in the channel ratio analysis and dried down in a speed vacuum. The combined sample was then resuspended in 1% formic acid, and acidified (pH 2-3) before being subjected to desalting with C18 SPE (Sep-Pak®, Waters®). Samples were then offline fractionated into 96 fractions by high pH reverse-phase HPLC (Agilent® LC1260) through an aeris peptide xb-c18 column (Phenomenex®) with mobile phase A containing 5% acetonitrile and 10 mM NH4HCO3 in LC-MS grade H2O, and mobile phase B containing 90% acetonitrile and 10 mM NH4HCO3 in LC-MS grade H2O (both pH 8.0). The 96 resulting fractions were then pooled in a non-continuous manner into 24 fractions and desalted using C18 solid phase extraction plates (SOLA®, Thermo Fisher Scientific) followed by subsequent mass spectrometry analysis.
(§3) Data were collected using an Orbitrap Fusion™ Lumos™ mass spectrometer (Thermo Fisher Scientific, San Jose, CA, USA) coupled with a Proxeon EASY-nLC™ 1200 LC pump (Thermo Fisher Scientific) or an Orbitrap Eclipse™ Tribrid™ mass spectrometer (Thermo Fisher Scientific, San Jose, CA, USA) coupled with an UltiMate™ 3000 RSLCnano System. Peptides were separated on an EasySpray™ ES803a/ES803a.rev2 75 μm inner diameter microcapillary column (ThermoFisher Scientific).
(§4) Data dependent MS2 spectra were acquired in the ion trap with a normalized collision energy (NCE) set at 35%, AGC target set to 1.8×10^4 and a maximum injection time of 120 ms. MS3 scans were acquired in the Orbitrap with HCD collision energy set to 55%. AGC target set to 2×10^5, maximum injection time of 150 ms, resolution at 50,000 and with a maximum synchronous precursor selection (SPS) precursors set to 10.
(§5) Proteome Discoverer™ 2.1, 2.2 or 2.4 (Thermo Fisher Scientific) was used for .RAW file processing and controlling peptide and protein level false discovery rates, assembling proteins from peptides, and protein quantification from peptides.

[13] = target: protein kinases (human kinome) (Homo sapiens, UniProt O14874); assay type: cell-based; conditions: BCKDK (O14874), experiment wp137
[14] = target: protein kinases (human kinome) (Homo sapiens, UniProt P31749); assay type: cell-based; conditions: for logFC: AKT1 (P31749)
[15] = target: protein kinases (human kinome) (Homo sapiens, UniProt P31751); assay type: cell-based; conditions: AKT2 (P31751)
[16] = target: protein kinases (human kinome) (Homo sapiens, UniProt Q15118); assay type: cell-based; conditions: PDK1 Q15118; experiment wp137
[17] = target: protein kinases (human kinome) (Homo sapiens, UniProt Q9Y243); assay type: cell-based; conditions: AKT3 (Q9Y243-1)
[18] = target: extended human kinome (kinase-like proteins) (Homo sapiens, UniProt P27144); experiment: Whole cell quantitative proteomics: extended kinome hits; conditions: experiment wp137
Protocol: as §1, §2, §3, §4, §5

[19] = target: T4, extended human kinome (kinase-like proteins) (Homo sapiens, UniProt Q7L8L6); experiment: as above; conditions: Accession Q7L8L6; experiment wp137
T4 sequence (Q7L8L6 28-764): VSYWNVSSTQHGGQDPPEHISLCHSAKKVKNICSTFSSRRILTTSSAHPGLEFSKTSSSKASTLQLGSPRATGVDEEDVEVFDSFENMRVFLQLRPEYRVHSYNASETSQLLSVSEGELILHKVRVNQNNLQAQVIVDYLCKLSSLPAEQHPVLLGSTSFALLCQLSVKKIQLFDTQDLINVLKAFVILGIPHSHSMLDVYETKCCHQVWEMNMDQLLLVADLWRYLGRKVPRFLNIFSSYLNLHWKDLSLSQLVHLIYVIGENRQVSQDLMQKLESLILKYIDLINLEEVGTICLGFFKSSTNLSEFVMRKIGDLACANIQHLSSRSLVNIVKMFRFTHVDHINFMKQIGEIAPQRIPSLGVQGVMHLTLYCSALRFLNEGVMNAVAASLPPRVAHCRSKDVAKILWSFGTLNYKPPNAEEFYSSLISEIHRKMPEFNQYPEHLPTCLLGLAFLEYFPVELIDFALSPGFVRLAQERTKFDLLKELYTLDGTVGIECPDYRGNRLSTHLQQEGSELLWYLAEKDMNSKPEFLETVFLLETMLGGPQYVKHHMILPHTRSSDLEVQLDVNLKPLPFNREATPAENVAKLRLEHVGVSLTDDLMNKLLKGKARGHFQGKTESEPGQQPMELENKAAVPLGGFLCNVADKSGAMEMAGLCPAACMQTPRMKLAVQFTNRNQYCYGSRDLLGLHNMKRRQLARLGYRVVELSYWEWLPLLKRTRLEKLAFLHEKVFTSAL
Protocol: as §1, §2, §3, §4, §5

[20] = target: T5, extended human kinome (kinase-like proteins) (Homo sapiens, UniProt Q9UHH9); experiment: as above; conditions: Accession Q9UHH9; experiment wp137
T5 sequence (Q9UHH9 1-426): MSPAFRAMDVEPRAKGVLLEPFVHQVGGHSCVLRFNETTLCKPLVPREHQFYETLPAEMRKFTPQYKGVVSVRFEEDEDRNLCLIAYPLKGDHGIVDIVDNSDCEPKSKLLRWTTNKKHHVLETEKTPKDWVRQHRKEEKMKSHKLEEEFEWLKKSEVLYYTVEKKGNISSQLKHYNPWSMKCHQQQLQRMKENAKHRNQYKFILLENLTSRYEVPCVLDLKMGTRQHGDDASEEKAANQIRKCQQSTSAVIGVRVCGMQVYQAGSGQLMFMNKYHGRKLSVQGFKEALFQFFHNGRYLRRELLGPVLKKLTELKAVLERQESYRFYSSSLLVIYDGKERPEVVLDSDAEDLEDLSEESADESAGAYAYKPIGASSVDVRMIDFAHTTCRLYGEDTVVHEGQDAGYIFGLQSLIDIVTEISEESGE
Protocol: as §1, §2, §3, §4, §5

[21] = experiment wp104, direction down
[22] = experiment wp137, direction down

protein kinases (human kinome) (Homo sapiens, UniProt P31751), sequence (P31751 whole entry): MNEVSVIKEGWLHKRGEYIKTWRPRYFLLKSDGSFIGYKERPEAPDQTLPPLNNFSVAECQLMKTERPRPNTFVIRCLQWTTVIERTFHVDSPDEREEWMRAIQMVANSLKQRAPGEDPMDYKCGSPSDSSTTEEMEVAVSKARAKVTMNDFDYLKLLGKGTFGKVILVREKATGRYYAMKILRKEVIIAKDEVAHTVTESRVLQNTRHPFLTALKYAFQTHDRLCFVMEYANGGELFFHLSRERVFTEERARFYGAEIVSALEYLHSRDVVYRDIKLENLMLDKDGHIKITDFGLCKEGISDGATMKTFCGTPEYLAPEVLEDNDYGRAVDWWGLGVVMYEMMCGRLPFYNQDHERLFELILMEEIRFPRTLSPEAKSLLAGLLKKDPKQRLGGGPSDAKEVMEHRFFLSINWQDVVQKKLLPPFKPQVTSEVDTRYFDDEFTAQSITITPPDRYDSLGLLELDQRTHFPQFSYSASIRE
protein kinases (human kinome) (Homo sapiens, UniProt O43683), sequence (O43683 whole entry): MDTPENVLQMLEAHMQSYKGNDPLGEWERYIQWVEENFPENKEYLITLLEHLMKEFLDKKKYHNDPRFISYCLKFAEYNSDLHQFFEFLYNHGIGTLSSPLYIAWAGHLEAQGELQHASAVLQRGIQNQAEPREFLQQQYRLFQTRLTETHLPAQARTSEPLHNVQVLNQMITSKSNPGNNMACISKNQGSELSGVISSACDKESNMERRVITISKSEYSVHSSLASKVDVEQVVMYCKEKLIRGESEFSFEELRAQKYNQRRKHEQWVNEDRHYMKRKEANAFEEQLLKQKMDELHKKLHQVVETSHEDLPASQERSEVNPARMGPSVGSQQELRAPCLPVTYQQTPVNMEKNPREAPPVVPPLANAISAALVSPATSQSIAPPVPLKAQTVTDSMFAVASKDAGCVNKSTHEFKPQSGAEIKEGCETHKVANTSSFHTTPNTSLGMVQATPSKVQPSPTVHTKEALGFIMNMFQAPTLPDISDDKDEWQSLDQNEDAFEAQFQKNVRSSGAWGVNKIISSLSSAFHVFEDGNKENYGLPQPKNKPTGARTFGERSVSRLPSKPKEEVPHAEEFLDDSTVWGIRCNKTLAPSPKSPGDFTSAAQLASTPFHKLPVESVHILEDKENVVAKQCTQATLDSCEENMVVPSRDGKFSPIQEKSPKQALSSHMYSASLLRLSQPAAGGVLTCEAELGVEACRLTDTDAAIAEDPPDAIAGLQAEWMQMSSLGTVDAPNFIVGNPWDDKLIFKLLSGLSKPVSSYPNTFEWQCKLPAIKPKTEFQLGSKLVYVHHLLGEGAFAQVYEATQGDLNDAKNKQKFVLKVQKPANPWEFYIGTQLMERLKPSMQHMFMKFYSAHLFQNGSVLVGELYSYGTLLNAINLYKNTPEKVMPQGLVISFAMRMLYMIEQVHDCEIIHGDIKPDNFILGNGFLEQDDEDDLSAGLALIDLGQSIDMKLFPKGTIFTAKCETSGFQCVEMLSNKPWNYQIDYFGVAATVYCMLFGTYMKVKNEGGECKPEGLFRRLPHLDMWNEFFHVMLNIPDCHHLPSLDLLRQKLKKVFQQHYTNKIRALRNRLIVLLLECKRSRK
protein kinases (human kinome) (Homo sapiens, UniProt P51451), sequence (P51451 whole entry): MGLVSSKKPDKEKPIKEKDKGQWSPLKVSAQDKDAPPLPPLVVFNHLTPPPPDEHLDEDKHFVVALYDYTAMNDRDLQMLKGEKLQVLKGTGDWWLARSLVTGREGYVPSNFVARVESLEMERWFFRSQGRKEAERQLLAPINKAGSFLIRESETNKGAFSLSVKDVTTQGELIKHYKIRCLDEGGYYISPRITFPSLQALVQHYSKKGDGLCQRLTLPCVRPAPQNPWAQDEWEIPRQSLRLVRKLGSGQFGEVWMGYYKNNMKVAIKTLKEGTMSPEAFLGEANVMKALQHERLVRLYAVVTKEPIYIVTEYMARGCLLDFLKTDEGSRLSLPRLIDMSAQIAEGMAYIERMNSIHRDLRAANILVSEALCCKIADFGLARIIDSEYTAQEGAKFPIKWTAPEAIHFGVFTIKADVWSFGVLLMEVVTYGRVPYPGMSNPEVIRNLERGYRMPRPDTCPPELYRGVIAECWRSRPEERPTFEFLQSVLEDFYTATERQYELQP
protein kinases (human kinome) (Homo sapiens, UniProt P31749), sequence (P31749 whole entry): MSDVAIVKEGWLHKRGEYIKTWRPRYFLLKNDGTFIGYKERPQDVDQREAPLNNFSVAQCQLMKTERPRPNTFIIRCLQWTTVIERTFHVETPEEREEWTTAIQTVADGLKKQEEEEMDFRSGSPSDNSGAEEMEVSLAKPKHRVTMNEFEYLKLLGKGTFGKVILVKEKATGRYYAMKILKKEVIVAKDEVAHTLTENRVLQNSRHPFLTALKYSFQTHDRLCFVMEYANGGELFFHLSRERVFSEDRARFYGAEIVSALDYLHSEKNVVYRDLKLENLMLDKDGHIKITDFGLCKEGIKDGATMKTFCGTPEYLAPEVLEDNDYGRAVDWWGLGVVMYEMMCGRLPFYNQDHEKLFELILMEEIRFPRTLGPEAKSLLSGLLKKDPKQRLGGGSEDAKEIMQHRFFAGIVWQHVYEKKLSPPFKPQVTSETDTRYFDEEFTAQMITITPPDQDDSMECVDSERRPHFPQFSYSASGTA
protein kinases (human kinome) (Homo sapiens, UniProt Q9Y243), sequence (Q9Y243 whole entry): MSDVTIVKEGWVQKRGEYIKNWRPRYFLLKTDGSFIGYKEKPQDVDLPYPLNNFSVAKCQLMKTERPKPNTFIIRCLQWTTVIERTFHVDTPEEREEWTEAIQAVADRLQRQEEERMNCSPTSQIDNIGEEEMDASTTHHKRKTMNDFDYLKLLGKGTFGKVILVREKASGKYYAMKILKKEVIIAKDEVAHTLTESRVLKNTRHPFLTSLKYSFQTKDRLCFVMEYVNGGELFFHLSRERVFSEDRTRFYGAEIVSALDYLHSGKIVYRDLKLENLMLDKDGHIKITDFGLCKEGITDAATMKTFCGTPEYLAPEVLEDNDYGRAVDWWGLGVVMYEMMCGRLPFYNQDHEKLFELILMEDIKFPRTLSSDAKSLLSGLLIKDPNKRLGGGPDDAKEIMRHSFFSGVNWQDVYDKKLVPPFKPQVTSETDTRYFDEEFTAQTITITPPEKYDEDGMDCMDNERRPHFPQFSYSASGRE
protein kinases (human kinome) (Homo sapiens, UniProt Q9H0K1), sequence (Q9H0K1 whole entry): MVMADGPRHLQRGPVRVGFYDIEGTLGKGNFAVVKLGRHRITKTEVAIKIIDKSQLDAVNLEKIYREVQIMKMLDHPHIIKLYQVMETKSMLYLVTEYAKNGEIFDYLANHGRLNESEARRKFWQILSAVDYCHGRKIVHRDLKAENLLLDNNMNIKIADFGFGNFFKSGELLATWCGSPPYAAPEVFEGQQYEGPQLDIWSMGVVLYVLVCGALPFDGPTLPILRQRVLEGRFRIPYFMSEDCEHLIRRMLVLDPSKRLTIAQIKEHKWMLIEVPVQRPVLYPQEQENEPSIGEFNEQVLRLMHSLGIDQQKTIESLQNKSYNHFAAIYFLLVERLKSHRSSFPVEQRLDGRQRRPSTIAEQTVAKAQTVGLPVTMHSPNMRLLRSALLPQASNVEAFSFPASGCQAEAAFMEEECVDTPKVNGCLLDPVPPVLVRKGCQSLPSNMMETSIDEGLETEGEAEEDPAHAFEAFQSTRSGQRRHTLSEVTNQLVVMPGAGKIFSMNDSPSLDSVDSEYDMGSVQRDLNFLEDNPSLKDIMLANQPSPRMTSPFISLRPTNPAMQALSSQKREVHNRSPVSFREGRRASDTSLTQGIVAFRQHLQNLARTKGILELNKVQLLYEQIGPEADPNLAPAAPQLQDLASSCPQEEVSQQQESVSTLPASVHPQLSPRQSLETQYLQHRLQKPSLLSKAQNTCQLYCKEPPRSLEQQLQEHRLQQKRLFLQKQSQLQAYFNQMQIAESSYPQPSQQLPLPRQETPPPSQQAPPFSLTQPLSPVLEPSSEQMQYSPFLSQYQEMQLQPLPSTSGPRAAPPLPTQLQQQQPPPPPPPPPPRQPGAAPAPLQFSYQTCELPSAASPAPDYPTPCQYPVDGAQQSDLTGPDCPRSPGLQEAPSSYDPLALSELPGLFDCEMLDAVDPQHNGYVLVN
protein kinases (human kinome) (Homo sapiens, UniProt Q07912), sequence (Q07912 whole entry): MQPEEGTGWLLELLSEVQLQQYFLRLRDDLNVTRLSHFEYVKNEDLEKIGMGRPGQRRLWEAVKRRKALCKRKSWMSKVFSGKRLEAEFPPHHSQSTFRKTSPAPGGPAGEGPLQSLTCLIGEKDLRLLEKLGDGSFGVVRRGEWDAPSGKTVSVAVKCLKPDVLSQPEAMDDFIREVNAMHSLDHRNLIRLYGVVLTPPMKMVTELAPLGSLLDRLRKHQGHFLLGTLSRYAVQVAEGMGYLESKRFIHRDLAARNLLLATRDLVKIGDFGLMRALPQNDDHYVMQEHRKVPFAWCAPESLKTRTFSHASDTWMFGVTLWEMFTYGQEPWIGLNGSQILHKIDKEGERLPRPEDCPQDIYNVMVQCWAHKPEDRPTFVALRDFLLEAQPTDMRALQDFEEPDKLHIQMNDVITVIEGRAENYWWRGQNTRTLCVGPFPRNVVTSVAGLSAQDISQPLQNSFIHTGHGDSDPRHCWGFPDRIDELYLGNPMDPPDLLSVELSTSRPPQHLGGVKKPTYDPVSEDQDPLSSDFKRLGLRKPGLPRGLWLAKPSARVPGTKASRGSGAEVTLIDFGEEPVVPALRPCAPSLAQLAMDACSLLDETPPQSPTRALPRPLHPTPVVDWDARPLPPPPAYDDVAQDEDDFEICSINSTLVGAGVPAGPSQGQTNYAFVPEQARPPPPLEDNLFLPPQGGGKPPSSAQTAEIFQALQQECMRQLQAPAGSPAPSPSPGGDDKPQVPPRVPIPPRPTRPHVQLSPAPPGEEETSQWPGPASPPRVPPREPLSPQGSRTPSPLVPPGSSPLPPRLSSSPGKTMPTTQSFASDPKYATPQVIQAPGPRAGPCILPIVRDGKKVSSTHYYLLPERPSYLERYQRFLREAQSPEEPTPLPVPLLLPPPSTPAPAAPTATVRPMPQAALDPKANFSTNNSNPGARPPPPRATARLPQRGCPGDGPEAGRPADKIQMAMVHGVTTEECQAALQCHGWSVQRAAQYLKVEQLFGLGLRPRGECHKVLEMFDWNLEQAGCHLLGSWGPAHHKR

## CN[C@@H](C)C(=O)N[C@H](C(=O)N1CCC[C@H]1c1nc(C(=O)c2cccc(OCCCCCn3cc(CN4CCN(c5ccc(Nc6ncc7c(n6)N(C)C(=O)N(c6cc(NC(=O)c8cccc(C(F)(F)F)c8)ccc6C)C7)cn5)CC4)nn3)c2)cs1)C1CCCCC1 [DB118430]
[1]; experiment wp134
  logFC: −0.3866
[1]; experiment wp152
  logFC: −0.3814
[1]; Experiment wp134
  logFC BUB1 (O43683): −0.3866
[1]; Experiment wp152
  logFC BUB1 (O43683): −0.3814
[2]
  logFC CDK4 (P11802): −0.3644
[3]
  logFC: −0.3601
[4]
  logFC: −0.5666
[4]; direction down
  logFC: −0.5666
[5]; experiment wp134
  logFC BLK: −0.5826
[5]; experiment wp152
  logFC BLK: −0.9023
[5]; Experiment wp134
  logFC of BLK (P51451): −0.5826
[5]; Experiment wp152
  logFC of BLK (P51451): −0.9023
[6]; LIMK2 (P53671), down
  logFC LIMK2: −0.4571
[6]; LIMK2 P53671
  logFC of LIMK2: −0.4571
[7]; Experiment wp134, direction down
  logFC TNK2 (Q07912-1): −0.575
[7]; TNK2 (Q07912-1), experiment wp134
  logFC TNK2: −0.575
[8]; Accession Q8TAS1, direction down
  logFC UHMK1: −0.4944
[8]; UHMK1 (Q8TAS1)
  logFC UHMK1: −0.4944
[9]; Accession Q9H0K1
  logFC of SIK2: −0.3803
[9]; direction of change down
  logFC SIK2 (Q9H0K1): −0.3803
[10]
  logFC: −0.3497
  logFC STK17A: −0.3497
[11]; as stated for the structure in the embodiments
  kinases the bifunctional compound degrades: BLK, BUB1, CDK4, LIMK2, SIK2, STK17A, TEC, TNK2, and UHMK1
[11]; kinases significantly downregulated vs DMSO (fold change cutoff −1.25, P-value<0.01), ≤8 h, 0.1-5 μM degrader, 7 cell lines
  Kinase hits: BLK, BUB1, CDK4, LIMK2, SIK2, STK17A, TEC, TNK2, UHMK1
[11]; number of degraded kinases per library compound
  Total no. kinase hits: 9
[12]
  logFC PFKFB3: −0.4616

## C[C@@H]1C[C@@H](O)c2ncnc(N3CCN(C(=O)[C@H](CNCCCCCCCCNC(=O)COc4cccc5c4C(=O)N(C4CCC(=O)NC4=O)C5=O)c4ccc(Cl)cc4)CC3)c21 (stereo partly drawn) [INY.02.164]
[13]
  logFC: −0.36
[13]; direction down
  logFC: −0.36
[14]; experiment wp104
  logFC: −0.7926
[14]; experiment wp137
  logFC: −3.206
  logFC of AKT1 (P31749): −3.206
[14]; Experiment wp104
  logFC of AKT1 (P31749): −0.7926
[15]; experiment wp104
  logFC: −1.078
[15]; [21]
  logFC: −1.078
[15]; experiment wp137
  logFC: −3.156
[15]; [22]
  logFC: −3.156
[16]
  logFC: −0.4419
  logFC PDK1: −0.4419
[17]; experiment wp104
  logFC: −1.478
[17]; [21]
  logFC: −1.478
[17]; experiment wp137
  logFC: −3.147
[17]; [22]
  logFC: −3.147
[18]
  logFC AK4 (P27144): −0.5601
[19]
  logFC FASTKD5: −0.3422
[20]
  logFC IP6K2: −0.5449
